Results from ChEMBL document CHEMBL4619774 (J Med Chem, 2020).

How the values were obtained:
[1] = AUC (0 to t) in beagle dog at 1 mg/kg, iv by HPLC-MS/MS analysis; type: ADME, organism-based, Canis lupus familiaris; conditions: in vivo
[2] = Dose normalized AUC in C57BL/6 mouse at 100 mg/kg, po by LC-MS/MS analysis; type: ADME, organism-based; conditions: in vivo
Coagulation factor IX = Coagulation factor IX (Homo sapiens, UniProt P00740); type: single protein
[3] = Oral bioavailability in C57BL/6 mouse at 100 mg/kg by LC-MS/MS analysis; type: ADME, organism-based; conditions: in vivo
[4] = Dose normalized AUC (0 to t) in beagle dog at 10 mg/kg, po via gavage by HPLC-MS/MS analysis; type: ADME, organism-based, Canis lupus familiaris; conditions: in vivo
[5] = Dose normalized AUC (0 to t) in Sprague-Dawley rat at 3 mg/kg, po via gavage by HPLC-MS/MS analysis; type: ADME, organism-based; conditions: in vivo
[6] = Efflux ratio of apparent permeability from basolateral to apical side over apical to basolateral side in MDCK-MDR1 cells; type: ADME, cell-based, Canis lupus familiaris; conditions: dog
Plasma kallikrein = Plasma kallikrein (Homo sapiens, UniProt P03952); type: single protein
Bile salt export pump = Bile salt export pump (Homo sapiens, UniProt O95342); assay: Inhibition of BSEP (unknown origin)
[7] = Volume of distribution at steady state in C57BL/6 mouse at 0.4 mg/kg, iv bolus injection or 3 mg/kg, po by LC-MS/MS analysis; type: ADME, organism-based; conditions: in vivo, read-out: Vdss
[8] = Oral bioavailability in beagle dog at 75 mg/kg via gavage by HPLC-MS/MS analysis; type: ADME, organism-based, Canis lupus familiaris; conditions: in vivo
Prothrombin = Prothrombin (Homo sapiens, UniProt P00734); type: single protein
[9] = Dose normalized Cmax in Sprague-Dawley rat at 100 mg/kg, po via gavage by HPLC-MS/MS analysis; type: ADME, organism-based; conditions: in vivo
[10] = Dose normalized Cmax in Sprague-Dawley rat at 30 mg/kg, po via gavage by HPLC-MS/MS analysis; type: ADME, organism-based; conditions: in vivo
[11] = Dose normalized Cmax in beagle dog at 10 mg/kg, po via gavage by HPLC-MS/MS analysis; type: ADME, organism-based, Canis lupus familiaris; conditions: in vivo
[12] = Volume of distribution at steady state in beagle dog at 1 mg/kg, iv by HPLC-MS/MS analysis; type: ADME, organism-based, Canis lupus familiaris; conditions: in vivo, read-out: Vdss
[13] = Dose normalized AUC in C57BL/6 mouse at 1 mg/kg, iv by LC-MS/MS analysis; type: ADME, organism-based; conditions: in vivo
Plasma = assay: Anticoagulant activity in human plasma assessed as concentration required to double the activated partial thromboplastin time incubated for 3 mins followed by calcium chloride addition by aPTT-s reagent based automated coagulometric method; type: functional
Coagulation factor XI = Coagulation factor XI (Homo sapiens, UniProt P03951); assay: Inhibition of […] human plasma F11a catalytic domain expressed in Escherichia coli strain BL21(DE3) using D-Leu-Pro-Arg*Rh110-D-Pro as substrate preincubated for 60 mins followed by substrate addition and measured after 60 mins by fluorescence assay
[14] = target: Tissue-type plasminogen activator (Homo sapiens, UniProt P00750); type: single protein
[15] = Dose normalized AUC (0 to t) in Sprague-Dawley rat at 30 mg/kg, po via gavage by HPLC-MS/MS analysis; type: ADME, organism-based; conditions: in vivo

Sequence of Bile salt export pump (O95342 whole entry): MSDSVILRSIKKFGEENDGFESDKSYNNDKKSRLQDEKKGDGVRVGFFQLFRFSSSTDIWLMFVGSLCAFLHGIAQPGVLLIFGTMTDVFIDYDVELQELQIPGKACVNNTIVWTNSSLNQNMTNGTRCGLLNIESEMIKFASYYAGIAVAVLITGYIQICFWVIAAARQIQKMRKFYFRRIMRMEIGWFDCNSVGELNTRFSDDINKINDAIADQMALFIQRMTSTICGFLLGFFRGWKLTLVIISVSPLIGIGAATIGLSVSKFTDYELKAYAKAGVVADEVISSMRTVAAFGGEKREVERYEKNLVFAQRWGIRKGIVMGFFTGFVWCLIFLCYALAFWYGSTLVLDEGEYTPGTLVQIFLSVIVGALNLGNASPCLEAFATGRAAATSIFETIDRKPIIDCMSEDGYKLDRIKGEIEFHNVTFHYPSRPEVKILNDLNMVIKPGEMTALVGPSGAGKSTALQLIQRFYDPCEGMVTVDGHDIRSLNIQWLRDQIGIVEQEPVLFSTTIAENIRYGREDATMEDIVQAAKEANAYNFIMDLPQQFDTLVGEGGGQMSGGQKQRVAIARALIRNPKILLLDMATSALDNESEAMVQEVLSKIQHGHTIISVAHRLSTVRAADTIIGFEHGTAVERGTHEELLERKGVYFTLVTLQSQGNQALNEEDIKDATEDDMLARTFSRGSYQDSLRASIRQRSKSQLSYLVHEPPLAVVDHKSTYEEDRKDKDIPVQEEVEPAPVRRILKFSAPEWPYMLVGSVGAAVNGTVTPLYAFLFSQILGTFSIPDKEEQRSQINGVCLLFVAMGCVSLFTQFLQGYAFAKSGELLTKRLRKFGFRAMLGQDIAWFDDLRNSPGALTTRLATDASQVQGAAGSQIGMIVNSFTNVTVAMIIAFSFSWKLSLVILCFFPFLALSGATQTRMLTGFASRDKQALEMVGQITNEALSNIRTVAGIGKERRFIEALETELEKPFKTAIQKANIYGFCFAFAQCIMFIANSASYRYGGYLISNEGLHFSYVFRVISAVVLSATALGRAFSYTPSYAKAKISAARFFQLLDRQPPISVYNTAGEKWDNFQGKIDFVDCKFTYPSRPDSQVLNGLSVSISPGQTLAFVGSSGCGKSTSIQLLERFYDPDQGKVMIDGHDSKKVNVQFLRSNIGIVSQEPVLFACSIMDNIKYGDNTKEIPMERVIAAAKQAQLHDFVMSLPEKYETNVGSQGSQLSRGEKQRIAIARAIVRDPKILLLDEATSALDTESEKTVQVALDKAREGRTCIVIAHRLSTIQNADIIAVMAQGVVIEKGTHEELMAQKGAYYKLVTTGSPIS
Sequence of Coagulation factor XI (P03951 19-387 limits assumed): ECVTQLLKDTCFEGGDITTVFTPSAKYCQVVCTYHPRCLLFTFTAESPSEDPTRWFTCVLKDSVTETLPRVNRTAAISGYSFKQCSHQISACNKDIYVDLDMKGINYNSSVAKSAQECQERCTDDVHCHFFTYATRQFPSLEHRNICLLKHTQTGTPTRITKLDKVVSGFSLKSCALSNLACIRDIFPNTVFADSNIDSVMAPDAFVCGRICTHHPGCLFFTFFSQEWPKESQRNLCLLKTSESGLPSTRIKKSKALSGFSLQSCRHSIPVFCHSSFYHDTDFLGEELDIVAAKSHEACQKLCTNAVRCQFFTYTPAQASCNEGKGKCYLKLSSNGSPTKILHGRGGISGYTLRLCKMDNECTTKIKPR
Sequence of Coagulation factor XI (P03951 388-625 limits assumed): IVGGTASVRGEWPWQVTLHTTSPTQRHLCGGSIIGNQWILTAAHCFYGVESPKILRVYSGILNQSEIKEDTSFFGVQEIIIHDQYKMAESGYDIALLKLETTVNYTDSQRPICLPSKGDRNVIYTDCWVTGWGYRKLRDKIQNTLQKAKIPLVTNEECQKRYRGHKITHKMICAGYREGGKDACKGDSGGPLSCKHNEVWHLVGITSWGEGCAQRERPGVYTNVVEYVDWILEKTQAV
Sequence of Plasma kallikrein (P03952 20-390 limits assumed): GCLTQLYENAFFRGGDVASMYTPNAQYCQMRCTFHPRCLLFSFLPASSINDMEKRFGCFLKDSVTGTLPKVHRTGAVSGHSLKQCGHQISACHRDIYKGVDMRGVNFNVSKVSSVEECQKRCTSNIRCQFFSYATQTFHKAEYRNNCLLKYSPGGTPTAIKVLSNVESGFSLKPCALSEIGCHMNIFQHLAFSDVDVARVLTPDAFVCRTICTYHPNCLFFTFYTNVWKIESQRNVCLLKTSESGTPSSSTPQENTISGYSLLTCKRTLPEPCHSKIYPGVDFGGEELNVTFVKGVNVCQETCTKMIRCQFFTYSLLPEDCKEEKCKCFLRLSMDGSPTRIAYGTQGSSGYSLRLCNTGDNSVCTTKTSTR
Sequence of Plasma kallikrein (P03952 391-638 limits assumed): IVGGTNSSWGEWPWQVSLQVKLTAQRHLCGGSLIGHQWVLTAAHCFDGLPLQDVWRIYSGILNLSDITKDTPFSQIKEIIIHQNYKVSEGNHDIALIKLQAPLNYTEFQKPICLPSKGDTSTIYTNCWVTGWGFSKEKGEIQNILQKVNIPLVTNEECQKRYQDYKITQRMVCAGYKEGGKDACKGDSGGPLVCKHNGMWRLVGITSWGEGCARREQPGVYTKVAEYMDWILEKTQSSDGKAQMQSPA
Sequence of Tissue-type plasminogen activator (P00750 whole entry): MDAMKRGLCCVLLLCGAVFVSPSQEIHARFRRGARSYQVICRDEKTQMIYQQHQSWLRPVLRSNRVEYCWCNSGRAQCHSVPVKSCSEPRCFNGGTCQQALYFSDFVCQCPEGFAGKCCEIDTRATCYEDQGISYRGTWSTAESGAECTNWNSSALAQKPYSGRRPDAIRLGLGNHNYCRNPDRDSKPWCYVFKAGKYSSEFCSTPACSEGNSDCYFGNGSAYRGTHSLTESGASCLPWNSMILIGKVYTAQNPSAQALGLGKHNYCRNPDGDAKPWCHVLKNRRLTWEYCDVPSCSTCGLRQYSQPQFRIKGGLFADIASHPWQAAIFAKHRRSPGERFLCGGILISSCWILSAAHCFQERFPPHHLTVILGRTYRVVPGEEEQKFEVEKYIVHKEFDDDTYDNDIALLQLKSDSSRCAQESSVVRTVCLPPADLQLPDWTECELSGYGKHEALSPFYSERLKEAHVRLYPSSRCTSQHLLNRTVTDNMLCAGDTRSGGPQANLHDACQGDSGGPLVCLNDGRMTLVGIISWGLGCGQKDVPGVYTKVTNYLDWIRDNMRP
Sequence of Coagulation factor IX (P00740 47-191 limits assumed): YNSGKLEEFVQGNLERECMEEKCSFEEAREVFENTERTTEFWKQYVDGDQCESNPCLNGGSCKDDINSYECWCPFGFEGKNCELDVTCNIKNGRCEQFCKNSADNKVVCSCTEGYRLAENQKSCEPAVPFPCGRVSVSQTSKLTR
Sequence of Coagulation factor IX (P00740 227-461 limits assumed): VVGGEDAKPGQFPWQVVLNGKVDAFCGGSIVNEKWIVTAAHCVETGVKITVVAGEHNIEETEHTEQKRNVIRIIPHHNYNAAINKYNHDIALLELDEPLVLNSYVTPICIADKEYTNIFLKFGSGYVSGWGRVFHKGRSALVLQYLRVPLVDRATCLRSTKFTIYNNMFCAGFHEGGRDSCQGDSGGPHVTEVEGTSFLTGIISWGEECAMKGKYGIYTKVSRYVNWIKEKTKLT

- AUC(0-t) [1]: 10.7 µM·h
- AUC/dose [2]: 260215 nM·h
- IC50 (Coagulation factor IX): 1920 nM
- bioavailability [3]: 100%
- AUCt/dose [4]: 560 nM·h
- AUCt/dose [5]: 382 nM·h
- efflux ratio [6]: 21.5
- IC50 (Plasma kallikrein): 1 nM
- Vd [7]: 0.57 L/kg
- bioavailability [8]: 21%
- IC50 (Prothrombin): 2570 nM
- Cmax/dose [9]: 323 nM
- Cmax/dose [10]: 143 nM
- Cmax/dose [11]: 217 nM
- Vd [12]: 0.3 L/kg
- AUC/dose [13]: 3264 nM·h
- IC50 (Coagulation factor XI): 10 nM
- IC50 [14]: 250 nM
- AUCt/dose [15]: 621 nM·h
Compound: CC(C)c1cc(-c2ccc3c(c2)[C@H](N)CO3)cc([C@H](O)Cn2ccc3cccc(C(=O)O)c32)c1
- IC50 (Bile salt export pump): 28000 nM
- 2aPTT (Plasma): 1.3 µM
